pIC50: −log10 of the molar value. Structures can show the parent of a compound that is named as a salt.
Columns and labels:
[1] = biological target: full length MALT1 (Homo sapiens (Human), UniProt Q9UDY8); experiment: MALT1 Biochemical Assay; settings: 15 nM enzyme, 30 μM peptide substrate Ac-Leu-Arg-Ser-Arg-Rh110-dPro, 30 min pre-incubation, 60 min reaction; mean value if tested more than once
Protocol: Inhibitor potency was evaluated by measuring enzymatic activity of full length MALT1 at varying concentrations of compound. The enzymatic assay consists of a single substrate reaction that monitors the release of a fluorescent dye upon cleavage of the peptide substrate. […] The assay buffer consists of 50 mM Hepes, pH 7.5, 0.8 M sodium citrate, 1 mM DTT, 0.004% tween-20, and 0.005% bovine serum albumin (BSA). […] The reaction was quenched after 60 minutes with the addition of iodoacetate at a final concentration of 10 mM. Total fluorescence was measured using an Envision (PerkinElmer) with fluorescence excitation at 485 nm and emission at […].
For potency determination, 1 μL of serially diluted compound (in 100% DMSO) was pre-incubated with 40 μL of enzyme for 30 minutes. The reaction was initiated with the addition of 10 μL of peptide substrate. The relative fluorescence units were transformed to percent inhibition by using 0% and 100% inhibition controls as reference. […] IC50 values were calculated by fitting the concentration-response curves to a four-parameter logistic equation in GraphPad Prism.

[2] = tested on: IL-2 in Jurkat (ATCC, clone E6.1) cells stimulated with anti-CD3/28/2; experiment: Jurkat IL-2 Assay; format: cell-based; settings: Homo sapiens; IL-2 inhibition, Jurkat cells, 30 min compound then anti-CD3/28/2 stimulation for 24 hours; mean value if tested more than once; read-out: IC50
Protocol: Inhibition was determined in a cell-based assay using Jurkat (ATCC, clone E6.1), an immortalized T-cell line, exposed to a dose response of compound and assessed for viability, and Il-2 inhibition by ELISA. Cells were cultured in RPMI/10% FBS (Invitrogen 11875093, Atlanta Biologicals S12450H), maintained below 3E6/mL and only used in assays while below passage 25. Compounds were stamped by ECHO onto 384w plates (PerkinElmer Culturplate, 6007680). The cells were plated in fresh media on top of compound and incubated for 30 minutes before stimulation with soluble anti-CD3/28/2 (Stemcell, 10970) for 24 hours. Supernatant was collected and assessed for Il-2 (MSD, 384w, L21SA-1). To assess viability of cells treated with compound, cells were lysed with CTG reagent (Promega, G7570), and measured by luminometer. […] IC50s calculated using 4-parameter fit in GraphPad Prism.
In this table, “A” indicates IC50 of less than 0.1 μM; “B” indicates IC50 from 0.1 μM up to 1 μM; and “C” indicates IC50 of greater than 1 μM. “N/A” indicates not tested. For a compound that was tested in more than one experiment, the result shown represents the mean value.

[3] = High Throughput Dialysis (HTD) Human Plasma Protein Binding Assay; format: in vitro ADME; settings: pooled human plasma, pH 7.4, equilibrium dialysis, 37° C., read-out: Human PPB (% Unbound)
Protocol: Human plasma protein binding of various compounds of formula (I) were evaluated using the equilibrium dialysis method described herein.
The dialysis membrane strips (HTD % a/b, catalog number 1101, HTDialysis LLC, Gales Ferry, CT, USA) were soaked in ultra-pure water at room temperature for approximately 1 hour. Each membrane strip containing 2 membranes was separated and soaked in 20:80 ethanol/water (v/v) for approximately 20 minutes, after which they were ready for use or were stored in the solution at 2-8° C. for up to a month. Prior to the experiment, the membrane was rinsed three times and soaked for 20 minutes in ultra-pure water.
On the day of experiment, the human plasma (BiolVT, catalog number […], sodium heparin or EDTA-K2 anticoagulant, multiple individuals pooled) was thawed by running under cold tap water and centrifuged at 3220 rpm for 5 minutes to remove any clots. The pH value of the resulting plasma was confirmed to be 7.0-8.0.
The test compounds and warfarin control (Stru Chem, catalog number SC-16139) were dissolved in dimethyl sulfoxide (DMSO) to obtain 10 mM stock solutions. DMSO working solutions were prepared at 400 μM. To prepare the loading matrix, the compound working solutions (5 μL) were added in a 1:200 ratio to blank human plasma (995 μL) and mixed thoroughly.
The time zero (T0) samples to be used for recovery determination were prepared as follows: 50 μL aliquots of loading matrix were transferred in triplicate to the sample collection plate. The samples were immediately matched with opposite blank buffer (basic solution (14.2 g/L Na2HPO4 and 8.77 g/L NaCl in deionized water) titrated with acidic solution (15.6 g/L NaH2PO4·2H2O and 8.77 g/L NaCl in deionized water) to pH 7.4±0.1) to obtain a final volume of 100 μL of 1:1 matrix/dialysis buffer (v/v) in each well. 500 μL stop solution (200 ng/mL tolbutamide and 200 ng/mL labetalol in acetonitrile) were added to these TO samples. They were then stored at 2-8° C. for further processing along with other post-dialysis samples.
To load the dialysis device (96-well equilibrium dialysis plate, model 96b, catalog number 1006. HTDialysis LLC, Gales Ferry, CT, USA), an aliquot of 150 μL of the loading matrix was transferred to the donor side of each dialysis well in triplicate, and 150 μL of the dialysis buffer was loaded to the receiver side of the well. The dialysis plate was placed in a humidified incubator at 37° C. with 5% CO2 on a shaking platform that rotated slowly (about 100 rpm) for 4 hours.
At the end of the dialysis, aliquots of 50 μL of the samples were taken from both the buffer side and the matrix side of the dialysis device. These samples were transferred into new 96-well plates (polypropylene, 2.2 mL/well, catalog number DWP-22-96-SQ-U-C-L. Apricot). Each sample was mixed with an equal volume of opposite blank matrix (buffer or matrix) to reach a final volume of 100 μL of 1:1 matrix/dialysis buffer (v/v) in each well. All samples were further processed by adding 500 μL of stop solution containing internal standards. The mixture was vortexed and centrifuged at 4000 rpm for about 20 minutes. An aliquot of 100 μL of supernatant of all the samples was then removed for LC-MS/MS analysis. Test compound concentrations in matrix and buffer samples were expressed as peak area ratios (PAR) of analyte/internal standard (no standard curve).
The single blank samples were prepared by transferring 50 μL of blank matrix to a 96 well plate (polypropylene. 2.2 mL/well, catalog number DWP-22-96-SQ-U-C-L, Apricot) and adding 50 μL of blank PBS buffer to each well. The blank plasma must match the species of plasma used in the plasma side of the well. Then the matrix-matched samples were further processed by adding 500 μL of stop solution containing internal standards, following the same sample processing method as the dialysis samples. […]

Chain of full length MALT1 (Q9UDY8 whole entry): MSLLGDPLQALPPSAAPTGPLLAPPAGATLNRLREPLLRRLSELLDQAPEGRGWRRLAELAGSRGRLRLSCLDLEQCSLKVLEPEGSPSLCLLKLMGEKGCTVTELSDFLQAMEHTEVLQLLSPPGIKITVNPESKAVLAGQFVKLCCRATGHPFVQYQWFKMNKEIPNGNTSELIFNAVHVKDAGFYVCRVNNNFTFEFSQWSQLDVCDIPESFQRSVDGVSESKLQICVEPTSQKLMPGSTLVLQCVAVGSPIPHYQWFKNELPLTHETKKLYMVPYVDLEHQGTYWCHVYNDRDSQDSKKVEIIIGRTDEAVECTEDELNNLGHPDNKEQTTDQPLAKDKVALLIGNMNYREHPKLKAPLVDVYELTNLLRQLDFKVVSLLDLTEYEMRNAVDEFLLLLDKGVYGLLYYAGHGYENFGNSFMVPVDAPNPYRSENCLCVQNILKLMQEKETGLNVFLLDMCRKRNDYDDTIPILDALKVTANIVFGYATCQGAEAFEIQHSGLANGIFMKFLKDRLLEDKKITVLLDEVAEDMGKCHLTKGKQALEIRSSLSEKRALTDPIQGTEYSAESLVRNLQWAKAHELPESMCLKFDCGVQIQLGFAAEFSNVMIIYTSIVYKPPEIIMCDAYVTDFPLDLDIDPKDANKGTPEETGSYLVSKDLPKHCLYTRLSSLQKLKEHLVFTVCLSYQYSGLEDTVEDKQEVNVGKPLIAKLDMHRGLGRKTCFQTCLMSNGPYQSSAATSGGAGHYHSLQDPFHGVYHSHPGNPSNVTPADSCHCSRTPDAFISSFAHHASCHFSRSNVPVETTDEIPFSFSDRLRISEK

| SMILES | pIC50 [1] | pIC50 [2] | fraction unbound at 4 h, 2 µM [3] |
| --- | --- | --- | --- |
| CO[C@@H](C)c1c(Nc2ccc([C@H](N(C)C(=O)C3CCC(CNC(C)=O)CC3)C(F)(F)F)cc2)cnc2nc(Cl)nn12 (stereo partly drawn) [Compound 3.11, N-[(1S)-1-[4-({2-chloro-7-[(1S)-1-methoxyethyl]-[1,2,4]triazolo[1,5-a]pyrimidin-6-yl}amino)phenyl]-2,2,2-trifluoroethyl]-4-(acetamidomethyl)-N-methylcyclohexane-1-carboxamide] | > 7.00 | 6.00 to 7.00 | – |
| COC(=O)NCC1CCC(C(=O)N(C)[C@@H](c2ccc(Nc3cnc4nc(Cl)nn4c3[C@H](C)OC)cc2)C(F)(F)F)CC1 (stereo partly drawn) [Compound 3.12, methyl N-[(4-{[(1S)-1-[4-({2-chloro-7-[(1S)-1-methoxyethyl]-[1,2,4]triazolo[1,5-a]pyrimidin-6-yl}amino)phenyl]-2,2,2-trifluoroethyl](methyl)carbamoyl}cyclohexyl)methyl]carbamate] | > 7.00 | 6.00 to 7.00 | – |
| CO[C@@H](C)c1c(Nc2ccc([C@H](N(C)C(=O)[C@H]3CC[C@H](O)CC3)C(F)(F)F)cc2)cnc2nc(Cl)nn12 [Compound 6.1, (1r,4S)—N—((S)-1-(4-((2-chloro-7-((S)-1-methoxyethyl)-[1,2,4]triazolo[1,5-a]pyrimidin-6-yl)amino)phenyl)-2,2,2-trifluoroethyl)-4-hydroxy-N-methylcyclohexane-1-carboxamide] | > 7.00 | 6.00 to 7.00 | – |
| CC(C)c1c(Nc2ccc([C@H](N(C)C(=O)[C@H]3CC[C@H](C(=O)O)CC3)C(F)(F)F)cc2)cnc2nc(Cl)nn12 [Compound 7.2, (1S,4r)-4-(((S)-1-(4-((2-chloro-7-isopropyl-[1,2,4]triazolo[1,5-a]pyrimidin-6-yl)amino)phenyl)-2,2,2-trifluoroethyl)(methyl)carbamoyl)cyclohexane-1-carboxylic acid ammonia salt] | > 7.00 | 6.00 to 7.00 | – |
| CO[C@@H](C)c1c(Nc2ccc([C@H](N(C)C(=O)[C@H]3C[C@H](C(=O)O)C3)C(F)(F)F)cc2)cnc2nc(Cl)nn12 [Compound 7.3, (1S,3r)-3-(((S)-1-(4-((2-chloro-7-((S)-1-methoxyethyl)-[1,2,4]triazolo[1,5-a]pyrimidin-6-yl)amino)phenyl)-2,2,2-trifluoroethyl)(methyl)carbamoyl)cyclobutane-1-carboxylic acid] | 6.00 to 7.00 | < 6.00 | – |

Second part, the molecule after the results:

| pIC50 [1] | pIC50 [2] | fraction unbound at 4 h, 2 µM [3] | SMILES |
| --- | --- | --- | --- |
| > 7.00 | 6.00 to 7.00 | – | CNC(=O)N1CCC(C(=O)N(C)[C@@H](c2ccc(Nc3cnc4nc(Cl)nn4c3[C@H](C)OC)cc2)C(F)(F)F)C1 (stereo partly drawn) [Compound 3.9, N3-[(1S)-1-[4-({2-chloro-7-[(1S)-1-methoxyethyl]-[1,2,4]triazolo[1,5-a]pyrimidin-6-yl}amino)phenyl]-2,2,2-trifluoroethyl]-N1,N3-dimethylpyrrolidine-1,3-dicarboxamide] |
| 6.00 to 7.00 | 6.00 to 7.00 | 0.08 to 0.2 | CO[C@@H](C)c1c(Nc2ccc([C@H](N(C)C(=O)C3CCN(S(C)(=O)=O)C3)C(F)(F)F)cc2)cnc2nc(Cl)nn12 (stereo partly drawn) [Compound 3.10, N-[(1S)-1-[4-({2-chloro-7-[(1S)-1-methoxyethyl]-[1,2,4]triazolo[1,5-a]pyrimidin-6-yl}amino)phenyl]-2,2,2-trifluoroethyl]-1-methanesulfonyl-N-methylpyrrolidine-3-carboxamide] |
| 6.00 to 7.00 | 6.00 to 7.00 | – | CO[C@@H](C)c1c(Nc2ccc([C@H](N(C)C(=O)C3CCCN(C(=O)C4CC4)C3)C(F)(F)F)cc2)cnc2nc(Cl)nn12 (stereo partly drawn) [Compound 4.2, N-[(1S)-1-[4-({2-chloro-7-[(1S)-1-methoxyethyl]-[1,2,4]triazolo[1,5-a]pyrimidin-6-yl}amino)phenyl]-2,2,2-trifluoroethyl]-1-cyclopropanecarbonyl-N-methylpiperidine-3-carboxamide] |
| > 7.00 | 6.00 to 7.00 | – | CO[C@@H](C)c1c(Nc2ccc([C@H](N(C)C(=O)C3CCN(C(=O)C4CC4)C3)C(F)(F)F)cc2)cnc2nc(Cl)nn12 (stereo partly drawn) [Compound 4.3, N-[(1S)-1-[4-({2-chloro-7-[(1S)-1-methoxyethyl]-[1,2,4]triazolo[1,5-a]pyrimidin-6-yl}amino)phenyl]-2,2,2-trifluoroethyl]-1-cyclopropanecarbonyl-N-methylpyrrolidine-3-carboxamide] |
| 6.00 to 7.00 | < 6.00 | – | CO[C@@H](C)c1c(Nc2ccc([C@H](N(C)C(=O)C3CCCN(C)C3)C(F)(F)F)cc2)cnc2nc(Cl)nn12 (stereo partly drawn) [Compound 5.2, N—((S)-1-(4-((2-chloro-7-((S)-1-methoxyethyl)-[1,2,4]triazolo[1,5-a]pyrimidin-6-yl)amino)phenyl)-2,2,2-trifluoroethyl)-N,1-dimethylpiperidine-3-carboxamide] |
| 6.00 to 7.00 | < 6.00 | – | CO[C@@H](C)c1c(Nc2ccc([C@H](N(C)C(=O)C3CCN(C)C3)C(F)(F)F)cc2)cnc2nc(Cl)nn12 (stereo partly drawn) [Compound 5.3, N-[(1S)-1-[4-({2-chloro-7-[(1S)-1-methoxyethyl]-[1,2,4]triazolo[1,5-a]pyrimidin-6-yl}amino)phenyl]-2,2,2-trifluoroethyl]-N,1-dimethylpyrrolidine-3-carboxamide hydrochloride] |
| 6.00 to 7.00 | 6.00 to 7.00 | – | CO[C@H](C)c1c(Nc2ccc([C@H](N(C)C(=O)C3CCS(=O)(=O)CC3)C(F)(F)F)cc2)cnc2nc(Cl)nn12 [Compound 10.1, N—((S)-1-(4-((2-chloro-7-((R)-1-methoxyethyl)-[1,2,4]triazolo[1,5-a]pyrimidin-6-yl)amino)phenyl)-2,2,2-trifluoroethyl)-N-methyltetrahydro-2H-thiopyran-4-carboxamide 1,1-dioxide] |
